The source of these data is ChEMBL document CHEMBL1201862, “PubChem BioAssay data set” (2004).

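Grown in 96-well plates, cells were treated for 48 hours with each compound at five concentrations. Insufficient inhibition: endpoint recorded as highest concentration tested. Abbreviation: GI50, concentration required for 50% inhibition of growth.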 The source made the active and inactive calls. Cut-off read from the data, not from the text of the source: active = GI50 up to about 1.1 µM and inactive = higher. Where only a bound is given, the exact number is not on record here.

Some test systems named below: NCI-H226; A549; SNB-75; MDA-MB-231; T47D; SW-620; SF-268; 786-0; A498; OVCAR-4; DU-145; ACHN; COLO 205; Hs-578T; EKVX; M14; RXF 393; HL-60; HOP-92.
Holding throughout (assay): NCI anticancer screen, dose series, 48 h

On to `CC[C@H]1OC([C@H](O)C/C=C\C#C[Si](C)(C)C)C/C=C\C[C@H]1O[Si](C)(C)C(C)(C)C` (stereo partly specified), for which the GI50 with NCI-H226, in the experiment on A549, with SNB-75, in the experiment with MDA-MB-231, with T47D and with SW-620 was > 100 µM (inactive) in each case. Moreover, the GI50 in the experiment on SF-268, in the experiment on 786-0, in the experiment with A498, with OVCAR-4, in the experiment on DU-145 and in the experiment on ACHN was > 100 µM (inactive) in each case. For the same compound, the GI50 in the experiment on COLO 205, in the experiment on Hs-578T, in the experiment on EKVX, with M14 and with RXF 393 was > 100 µM (inactive) each time.

As for `N#C[C@@H](c1ccccn1)c1ncccc1[N+](=O)[O-]`, the GI50 in the experiment with A549, with SNB-75, in the experiment on MDA-MB-231, with T47D, in the experiment with SW-620 and in the experiment on SF-268 was > 100 µM (inactive) each time. The GI50 in the experiment on 786-0, in the experiment with A498, in the experiment on OVCAR-4, with DU-145, with ACHN and in the experiment with COLO 205 was > 100 µM (inactive) throughout. Further, the GI50 with Hs-578T, with EKVX, in the experiment on M14 and in the experiment with RXF 393 was > 100 µM (inactive) throughout.

Turning to `O=C(O/N=c1/ccc(=O)/c(=N\OC(=O)c2ccccc2)c1=O)c1ccccc1`, the GI50 in the experiment on NCI-H226 is > 100 µM (inactive); in the experiment on A549 it was > 100 µM (inactive); in the experiment on HL-60, 0.857 µM (active); in the experiment with SNB-75, > 100 µM (inactive); in the experiment on T47D it was > 100 µM (inactive); with HOP-92 it was > 100 µM (inactive). In addition, the GI50 in the experiment on SW-620, with SF-268, in the experiment with 786-0, in the experiment on A498, in the experiment with OVCAR-4 and in the experiment on ACHN was > 100 µM (inactive) each time. Further, the GI50 with COLO 205, with Hs-578T, in the experiment with EKVX, with M14 and in the experiment with RXF 393 was > 100 µM (inactive) each time.

Regarding `CSc1cc(Cl)c(C)cc1S(=O)(=O)NC(=O)NNc1ccccn1`, the GI50 in the experiment on NCI-H226 was > 100 µM (inactive); in the experiment with A549, > 100 µM (inactive); in the experiment with SNB-75, 5.21 µM (inactive); in the experiment with MDA-MB-231, > 100 µM (inactive); in the experiment on T47D, > 100 µM (inactive); in the experiment on SW-620, > 100 µM (inactive). In addition, the GI50 with SF-268, in the experiment on 786-0, in the experiment with A498, with OVCAR-4, with DU-145 and in the experiment on ACHN was > 100 µM (inactive) in each case. The GI50 with COLO 205, in the experiment on Hs-578T, in the experiment on EKVX, in the experiment with M14 and in the experiment with RXF 393 was > 100 µM (inactive) each time.

Regarding `COc1cc2c(cc1OC)C1(COc3cc(O)c(O)c(O)c3C1=O)C2` (stereo unspecified), the GI50 with NCI-H226 is > 50 µM (inactive); in the experiment on A549, > 50 µM (inactive); in the experiment with HL-60 it was > 50 µM (inactive); in the experiment with SNB-75 it was 8.65 µM (inactive); with MDA-MB-231, > 50 µM (inactive); in the experiment with T47D it was 5.11 µM (inactive). The GI50 in the experiment with SW-620, in the experiment with SF-268, in the experiment with 786-0, in the experiment with A498, in the experiment with OVCAR-4 and in the experiment with DU-145 was > 50 µM (inactive) throughout. The GI50 is > 50 µM (inactive) in the experiment with ACHN; > 50 µM (inactive) in the experiment with COLO 205; 16.4 µM (inactive) in the experiment with Hs-578T; > 50 µM (inactive) in the experiment with M14; > 50 µM (inactive) in the experiment on RXF 393.

Consider `Nc1ccc(SC23CC4CC(CC(C4)C2)C3)cc1`, for which the GI50 is < 0.01 µM (active) in the experiment with NCI-H226; > 100 µM (inactive) in the experiment with A549; > 100 µM (inactive) with HL-60; > 100 µM (inactive) with MDA-MB-231; > 100 µM (inactive) with T47D; > 100 µM (inactive) with SW-620. In addition, the GI50 is 54.5 µM (inactive) with SF-268; > 100 µM (inactive) in the experiment with 786-0; > 100 µM (inactive) with A498; > 100 µM (inactive) in the experiment on DU-145; > 100 µM (inactive) with ACHN; > 100 µM (inactive) in the experiment on COLO 205. Also, the GI50 in the experiment with Hs-578T was > 100 µM (inactive); in the experiment with EKVX, > 100 µM (inactive); in the experiment on M14 it was > 100 µM (inactive); in the experiment on RXF 393, 27.5 µM (inactive).

For `CCCCC1Nc2ccccc2-c2ccnc(Cl)c21` (stereo unspecified), the GI50 in the experiment with NCI-H226 was 17.6 µM (inactive); with A549, 28.1 µM (inactive); in the experiment with HL-60 it was 17.8 µM (inactive); in the experiment on SNB-75, 13.5 µM (inactive); in the experiment on MDA-MB-231, 17.1 µM (inactive); in the experiment with HOP-92, 14.2 µM (inactive). Besides, the GI50 was 21.2 µM (inactive) with SW-620; 23.1 µM (inactive) in the experiment with SF-268; 19.5 µM (inactive) in the experiment with 786-0; 16.8 µM (inactive) with A498; 20.1 µM (inactive) in the experiment with OVCAR-4; 20.5 µM (inactive) in the experiment with DU-145. In addition, the GI50 in the experiment on ACHN is 20.8 µM (inactive); in the experiment with COLO 205, 15.7 µM (inactive); with Hs-578T, 15 µM (inactive); with EKVX, 24.2 µM (inactive); with M14, 19.1 µM (inactive); with RXF 393 it was 18.5 µM (inactive).

For the compound `Cn1c2ccccc2c(=O)c2cccc(C(=O)NC(CS)C(=O)O)c21` (stereo unspecified), the GI50 was 40.1 µM (inactive) in the experiment with NCI-H226; > 100 µM (inactive) in the experiment on A549; < 0.01 µM (active) with HL-60; 72.4 µM (inactive) in the experiment on SNB-75; 60.8 µM (inactive) in the experiment on MDA-MB-231; > 100 µM (inactive) in the experiment on T47D. For the same compound, the GI50 in the experiment with SW-620 was 84.9 µM (inactive); in the experiment with SF-268, 93.5 µM (inactive); in the experiment on 786-0 it was 81.1 µM (inactive); in the experiment with A498 it was > 100 µM (inactive); with OVCAR-4, > 100 µM (inactive); in the experiment on DU-145, > 100 µM (inactive). Further, the GI50 with ACHN was > 100 µM (inactive); with COLO 205, 67.5 µM (inactive); with Hs-578T, > 100 µM (inactive); in the experiment with EKVX, > 100 µM (inactive); in the experiment with M14 it was > 100 µM (inactive).

Turning to `CCN1CCCC(C#N)(c2ccccc2)CC1` (stereo unspecified), the GI50 is > 100 µM (inactive) in the experiment with A549; > 100 µM (inactive) in the experiment with HL-60; 99.5 µM (inactive) in the experiment with SNB-75; > 100 µM (inactive) in the experiment with T47D; > 100 µM (inactive) with HOP-92; > 100 µM (inactive) in the experiment with SW-620. Also, the GI50 in the experiment with SF-268, in the experiment on 786-0, in the experiment with A498, with OVCAR-4, in the experiment on DU-145 and with ACHN was > 100 µM (inactive) throughout. Besides, the GI50 in the experiment with COLO 205 is > 100 µM (inactive); in the experiment on Hs-578T, 61.7 µM (inactive); in the experiment with EKVX, > 100 µM (inactive); with M14 it was > 100 µM (inactive); in the experiment on RXF 393 it was > 100 µM (inactive).

For the compound `CN(C)CCCNC(=S)S`, the GI50 in the experiment on NCI-H226, in the experiment on A549, in the experiment on HL-60, in the experiment on MDA-MB-231, in the experiment with HOP-92 and in the experiment on SW-620 was > 100 µM (inactive) in each case. The GI50 with SF-268, in the experiment with 786-0, in the experiment with A498, in the experiment on OVCAR-4, in the experiment with DU-145 and in the experiment with ACHN was > 100 µM (inactive) each time. In addition, the GI50 with COLO 205, with Hs-578T, with EKVX, with M14 and with RXF 393 was > 100 µM (inactive) in each case.

For the compound `Cc1ccc(S(=O)(=O)N2CCCC2C(=O)O[C@H]2CC[C@H]3CC=C[C@H]32)cc1` (stereo partly specified), the GI50 is 24.7 µM (inactive) in the experiment on NCI-H226; 19.4 µM (inactive) with A549; > 10 µM (inactive) with HL-60; > 74.6 µM (inactive) in the experiment with SNB-75; 63.4 µM (inactive) with MDA-MB-231; 38.3 µM (inactive) with T47D. The GI50 with SW-620 was 31.1 µM (inactive); in the experiment with SF-268 it was > 100 µM (inactive); in the experiment on 786-0, 18.9 µM (inactive); in the experiment on A498, 23.8 µM (inactive); in the experiment with OVCAR-4, > 55.8 µM (inactive); in the experiment on DU-145, > 10 µM (inactive). Moreover, the GI50 is 18.7 µM (inactive) with ACHN; > 10 µM (inactive) with COLO 205; 41.4 µM (inactive) with Hs-578T; 65.6 µM (inactive) in the experiment on EKVX; 38.7 µM (inactive) in the experiment on M14.

Turning to `O=C1CCC(N2C(=O)c3ccccc3C2=O)C(=O)N1` (stereo unspecified) [THALIDOMIDE], the GI50 in the experiment on A549, in the experiment with SNB-75, with T47D, in the experiment with HOP-92, with SW-620 and in the experiment with SF-268 was > 100 µM (inactive) throughout. Moreover, the GI50 in the experiment with 786-0, with OVCAR-4, in the experiment on DU-145, in the experiment on ACHN, in the experiment on COLO 205 and in the experiment on Hs-578T was > 100 µM (inactive) in each case. Moreover, the GI50 in the experiment on EKVX, in the experiment on M14 and with RXF 393 was > 100 µM (inactive) each time.
